In PubChem BioAssay AID252 (DTP/NCI, 2004):
Values joined by “and” are separate entries in the source; they are usually repeats but may differ in a detail not shown here. Identical values can stand only once. Inconclusive results and toxic doses are left out.

System: BDF1 mice, intracerebral L1210 leukemia, survival T/C
Assay: NCI In Vivo Anticancer Drug Screen. Data for tumor model L1210 Leukemia (intracerebral) in B6D2F1 (BDF1) mice
Conditions: higher = longer survival
Procedure, shortened: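 Tumour was transplanted, animals received compound or vehicle, then survival in each group was measured and treated divided by control.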

## O=C1CN=C(c2ccc[nH]2)c2cc(Cl)ccc2N1
endpoint: mean survival time, dose: 248.0 mg/kg/injection, schedule: Q01DX009 (sc), vehicle: Klucel (hydroxypropylcellulose) (HPC)
  T/C: 103 % of control
endpoint: mean survival time, dose: 377.0 mg/kg/injection, schedule: Q01DX009 (sc), vehicle: Klucel (hydroxypropylcellulose) (HPC)
  T/C: 108 % of control
endpoint: mean survival time, dose: 571.0 mg/kg/injection, schedule: Q01DX009 (sc), vehicle: Klucel (hydroxypropylcellulose) (HPC)
  T/C: 100 % of control
endpoint: mean survival time, dose: 858.0 mg/kg/injection, schedule: Q01DX009 (sc), vehicle: Klucel (hydroxypropylcellulose) (HPC)
  T/C: 108 % of control
endpoint: mean survival time, dose: 1300.0 mg/kg/injection, schedule: Q01DX009 (sc), vehicle: Klucel (hydroxypropylcellulose) (HPC)
  T/C: 122 % of control
endpoint: median survival time, dose: 1.75 mg/kg/injection, schedule: Q01DX009 (ip), vehicle: other
  T/C: 102 % of control
endpoint: median survival time, dose: 3.15 mg/kg/injection, schedule: Q01DX009 (ip), vehicle: other
  T/C: 102 % of control
endpoint: median survival time, dose: 6.3 mg/kg/injection, schedule: Q01DX009 (ip), vehicle: other
  T/C: 106 % of control
endpoint: median survival time, dose: 12.5 mg/kg/injection, schedule: Q01DX009 (ip), vehicle: other
  T/C: 102 % of control
endpoint: median survival time, dose: 25.0 mg/kg/injection, schedule: Q01DX009 (ip), vehicle: other
  T/C: 110 % of control

## COCCOCCN1CCN(CCCN2c3ccccc3Sc3ccc(C(F)(F)F)cc32)CC1
endpoint: mean survival time, dose: 25.0 mg/kg/injection, schedule: Q04DX003 (ip), vehicle: saline
  T/C: 100 % of control
endpoint: mean survival time, dose: 35.0 mg/kg/injection, schedule: Q04DX003 (ip), vehicle: saline
  T/C: 108 % of control
endpoint: mean survival time, dose: 50.0 mg/kg/injection, schedule: Q04DX003 (ip), vehicle: saline
  T/C: 93 % of control

## Cc1c(C)c(NC(=O)N(CCCl)N=O)c(C)c(C)c1NC(=O)N(CCCl)N=O
endpoint: mean survival time, dose: 15.5 mg/kg/injection, schedule: Q01DX001 (ip), vehicle: other
  T/C: 102 % of control
endpoint: mean survival time, dose: 31.0 mg/kg/injection, schedule: Q01DX001 (ip), vehicle: other
  T/C: 98 % of control
endpoint: mean survival time, dose: 62.0 mg/kg/injection, schedule: Q01DX001 (ip), vehicle: other
  T/C: 101 % of control
endpoint: mean survival time, dose: 250.0 mg/kg/injection, schedule: Q01DX001 (ip), vehicle: other
  T/C: 171 % of control and 175 % of control
endpoint: mean survival time, dose: 375.0 mg/kg/injection, schedule: Q01DX001 (ip), vehicle: other
  T/C: 182 % of control and 183 % of control
endpoint: mean survival time, dose: 500.0 mg/kg/injection, schedule: Q01DX001 (ip), vehicle: other
  T/C: 172 % of control and 178 % of control
endpoint: mean survival time, dose: 501.0 mg/kg/injection, schedule: Q01DX001 (ip), vehicle: other
  T/C: 93 % of control

## CN(N=O)C(=O)Nc1c[nH]c(=O)[nH]c1=O
endpoint: mean survival time, dose: 60.0 mg/kg/injection, schedule: Q01DX001 (ip), vehicle: saline
  T/C: 103 % of control
endpoint: mean survival time, dose: 120.0 mg/kg/injection, schedule: Q01DX001 (ip), vehicle: saline
  T/C: 104 % of control
endpoint: mean survival time, dose: 480.0 mg/kg/injection, schedule: Q01DX001 (ip), vehicle: saline
  T/C: 108 % of control
endpoint: mean survival time, dose: 960.0 mg/kg/injection, schedule: Q01DX001 (ip), vehicle: saline
  T/C: 86 % of control

## CCCCCCCCCCCCCCCCCCCCCC(=O)Nc1ccn(C2OC(CO)C(O)C2O)c(=O)n1 (centres undefined)
endpoint: median survival time, dose: 25.0 mg/kg/injection, schedule: Q01DX009 (ip), vehicle: saline with Tween-80
  T/C: 208 % of control
endpoint: median survival time, dose: 50.0 mg/kg/injection, schedule: Q01DX009 (ip), vehicle: saline with Tween-80
  T/C: 162 % of control
endpoint: median survival time, dose: 100.0 mg/kg/injection, schedule: Q01DX009 (ip), vehicle: saline with Tween-80
  T/C: 198 % of control
endpoint: median survival time, dose: 200.0 mg/kg/injection, schedule: Q01DX009 (ip), vehicle: saline with Tween-80
  T/C: 250 % of control
endpoint: median survival time, dose: 400.0 mg/kg/injection, schedule: Q01DX009 (ip), vehicle: saline with Tween-80
  T/C: 96 % of control

## O=NN(CCO)C(=O)Nc1c[nH]c(=O)[nH]c1=O
endpoint: mean survival time, dose: 173.0 mg/kg/injection, schedule: Q01DX001 (ip), vehicle: carboxymethylcellulose (CMC)
  T/C: 100 % of control
endpoint: mean survival time, dose: 260.0 mg/kg/injection, schedule: Q01DX001 (ip), vehicle: carboxymethylcellulose (CMC)
  T/C: 102 % of control
endpoint: mean survival time, dose: 400.0 mg/kg/injection, schedule: Q01DX001 (ip), vehicle: carboxymethylcellulose (CMC)
  T/C: 106 % of control

## CCCCCCCCCCCCCCCC(=O)Nc1ccn(C2OC(CO)C(O)C2O)c(=O)n1 (centres undefined)
endpoint: median survival time, dose: 12.5 mg/kg/injection, schedule: Q01DX009 (ip), vehicle: distilled water + Tween-80 + alcohol
  T/C: 214 % of control
endpoint: median survival time, dose: 25.0 mg/kg/injection, schedule: Q01DX009 (ip), vehicle: distilled water + Tween-80 + alcohol
  T/C: 269 % of control
